According to paper PMC11439681, “The identification of potent dual-target monopolar spindle 1 (MPS1) and histone deacetylase 8 (HDAC8) inhibitors through pharmacophore modeling, molecular docking, molecular dynamics simulations, and biological evaluation” (Frontiers in Pharmacology, 2024):

Assays:
[1] = system: HepG2 xenograft tumor; test: In vivo antitumor assay, HepG2 xenograft model; design: species or system BALB/c mice; conditions: i.p., 1, 5 and 10 mg/kg
Description: Male BALB/c mice (6 weeks old) were purchased from Changzhou Cavens Experimental Animal Limited Company (Changzhou, China). The xenograft model was established by subcutaneous injection of a suspension of HepG2 human liver cancer cells in PBS (200 μL, 1 × 10^7 cells) into the mice. The mice were randomized into four groups and received intraperitoneal injections of vehicle or MPH-5 at concentrations of 1, 5 and 10 mg/kg. Tumor volume was measured at 3-day intervals and calculated as follows: (c × c × d)/2 (c, the smallest diameter; d, the largest diameter). The experiments involving animals were approved by the Ethics Committee of China Pharmaceutical University.

[2] = target: T1, JAK3 (Homo sapiens, UniProt P52333); test: In vitro selectivity assay; assay type: biochemical; conditions: selectivity panel
T1 construct: ICE Bioscience Inc. (contract assay provider)
T1 sequence (P52333 whole entry): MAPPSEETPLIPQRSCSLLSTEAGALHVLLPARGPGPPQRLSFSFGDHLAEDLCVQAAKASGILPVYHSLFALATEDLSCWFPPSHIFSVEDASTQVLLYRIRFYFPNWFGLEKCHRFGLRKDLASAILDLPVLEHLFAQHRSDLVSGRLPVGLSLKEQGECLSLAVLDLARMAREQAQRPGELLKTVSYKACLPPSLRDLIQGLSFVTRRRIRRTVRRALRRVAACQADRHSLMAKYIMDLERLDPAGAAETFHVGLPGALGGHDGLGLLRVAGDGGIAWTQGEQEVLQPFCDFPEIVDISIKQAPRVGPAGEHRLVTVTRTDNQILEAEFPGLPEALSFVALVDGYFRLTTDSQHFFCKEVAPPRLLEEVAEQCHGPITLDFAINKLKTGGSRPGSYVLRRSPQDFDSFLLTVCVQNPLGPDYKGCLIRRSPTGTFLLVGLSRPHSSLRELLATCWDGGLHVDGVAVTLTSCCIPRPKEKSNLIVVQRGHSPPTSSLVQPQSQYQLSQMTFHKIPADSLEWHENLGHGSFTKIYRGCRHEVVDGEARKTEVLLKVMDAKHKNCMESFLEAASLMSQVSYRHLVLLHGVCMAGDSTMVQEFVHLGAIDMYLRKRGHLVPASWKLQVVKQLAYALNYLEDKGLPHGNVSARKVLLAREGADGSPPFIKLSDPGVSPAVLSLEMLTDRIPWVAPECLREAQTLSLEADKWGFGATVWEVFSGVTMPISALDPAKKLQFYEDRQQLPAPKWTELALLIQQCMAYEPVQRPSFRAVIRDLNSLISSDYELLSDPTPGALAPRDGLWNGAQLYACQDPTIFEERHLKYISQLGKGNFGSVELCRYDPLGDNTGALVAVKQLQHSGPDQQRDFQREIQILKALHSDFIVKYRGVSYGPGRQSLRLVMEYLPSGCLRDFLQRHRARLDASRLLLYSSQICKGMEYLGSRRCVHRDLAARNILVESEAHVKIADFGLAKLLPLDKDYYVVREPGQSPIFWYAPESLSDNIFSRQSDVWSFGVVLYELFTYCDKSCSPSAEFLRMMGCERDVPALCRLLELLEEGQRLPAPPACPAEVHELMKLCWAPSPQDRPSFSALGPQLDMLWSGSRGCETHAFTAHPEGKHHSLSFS
Description: (§1) The inhibitory effects of compound MPH-5 on a panel of 68 kinases and other histone deacetylases were evaluated to assess the selectivity profile of MPH-5. This experiment was conducted by ICE Bioscience Inc. (Beijing, China).

[3] = target: T2, MST1R (Homo sapiens, UniProt Q04912); test: In vitro selectivity assay; assay type: biochemical; conditions: selectivity panel
T2 construct: ICE Bioscience Inc. (contract assay provider)
Description: as §1

[4] = target: FGFR4 (Homo sapiens, UniProt P22455); test: In vitro selectivity assay; assay type: biochemical; conditions: selectivity panel
Description: as §1

[5] = target: ITK (Homo sapiens, UniProt Q08881); test: In vitro selectivity assay; assay type: biochemical; conditions: selectivity panel
Description: as §1

[6] = target: FGFR3 (Homo sapiens, UniProt P22607); test: In vitro selectivity assay; assay type: biochemical; conditions: selectivity panel
Description: as §1

[7] = target: T3, EPHA2 (Homo sapiens, UniProt P29317); test: In vitro selectivity assay; assay type: biochemical; conditions: selectivity panel
T3 construct: ICE Bioscience Inc. (assay service)
Description: as §1

[8] = target: ERBB4 (Homo sapiens, UniProt Q15303); test: In vitro selectivity assay; assay type: biochemical; conditions: selectivity panel
Chain of ERBB4 (Q15303 26-1308): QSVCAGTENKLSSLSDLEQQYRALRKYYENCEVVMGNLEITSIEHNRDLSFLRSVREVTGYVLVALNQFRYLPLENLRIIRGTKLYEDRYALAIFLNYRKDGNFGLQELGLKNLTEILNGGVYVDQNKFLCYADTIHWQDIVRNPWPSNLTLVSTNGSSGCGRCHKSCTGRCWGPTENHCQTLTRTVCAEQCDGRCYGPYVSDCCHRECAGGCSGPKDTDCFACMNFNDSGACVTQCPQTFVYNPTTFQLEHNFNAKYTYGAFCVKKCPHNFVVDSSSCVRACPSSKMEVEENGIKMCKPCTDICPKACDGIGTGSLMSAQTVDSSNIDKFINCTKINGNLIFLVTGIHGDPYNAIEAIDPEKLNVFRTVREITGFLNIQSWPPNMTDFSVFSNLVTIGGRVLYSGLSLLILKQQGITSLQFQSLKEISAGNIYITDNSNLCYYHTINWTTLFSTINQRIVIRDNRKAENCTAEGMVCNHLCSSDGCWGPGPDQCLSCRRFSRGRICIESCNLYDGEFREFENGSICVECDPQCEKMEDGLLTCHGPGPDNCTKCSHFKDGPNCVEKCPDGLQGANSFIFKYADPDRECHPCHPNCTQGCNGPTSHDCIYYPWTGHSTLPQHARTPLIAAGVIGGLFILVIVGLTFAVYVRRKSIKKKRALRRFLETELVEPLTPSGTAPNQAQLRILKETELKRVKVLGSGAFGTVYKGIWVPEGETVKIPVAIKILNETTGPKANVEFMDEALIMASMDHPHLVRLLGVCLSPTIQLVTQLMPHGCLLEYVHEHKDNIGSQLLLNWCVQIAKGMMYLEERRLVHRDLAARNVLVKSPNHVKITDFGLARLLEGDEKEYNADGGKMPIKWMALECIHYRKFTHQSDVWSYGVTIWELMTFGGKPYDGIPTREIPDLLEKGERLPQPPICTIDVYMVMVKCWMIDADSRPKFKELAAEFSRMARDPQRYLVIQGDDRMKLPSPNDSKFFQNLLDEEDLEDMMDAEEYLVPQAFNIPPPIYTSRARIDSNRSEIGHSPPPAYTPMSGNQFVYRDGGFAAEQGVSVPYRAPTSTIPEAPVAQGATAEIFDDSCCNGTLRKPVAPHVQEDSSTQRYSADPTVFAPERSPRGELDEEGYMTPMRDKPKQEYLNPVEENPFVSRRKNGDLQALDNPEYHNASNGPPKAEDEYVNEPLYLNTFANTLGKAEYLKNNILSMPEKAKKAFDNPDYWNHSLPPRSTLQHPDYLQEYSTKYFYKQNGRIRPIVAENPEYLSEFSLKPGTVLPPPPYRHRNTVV
Description: as §1

[9] = target: ZAK (Homo sapiens, UniProt Q9NYL2); test: In vitro selectivity assay; assay type: biochemical; conditions: selectivity panel
Chain of ZAK (Q9NYL2 whole entry): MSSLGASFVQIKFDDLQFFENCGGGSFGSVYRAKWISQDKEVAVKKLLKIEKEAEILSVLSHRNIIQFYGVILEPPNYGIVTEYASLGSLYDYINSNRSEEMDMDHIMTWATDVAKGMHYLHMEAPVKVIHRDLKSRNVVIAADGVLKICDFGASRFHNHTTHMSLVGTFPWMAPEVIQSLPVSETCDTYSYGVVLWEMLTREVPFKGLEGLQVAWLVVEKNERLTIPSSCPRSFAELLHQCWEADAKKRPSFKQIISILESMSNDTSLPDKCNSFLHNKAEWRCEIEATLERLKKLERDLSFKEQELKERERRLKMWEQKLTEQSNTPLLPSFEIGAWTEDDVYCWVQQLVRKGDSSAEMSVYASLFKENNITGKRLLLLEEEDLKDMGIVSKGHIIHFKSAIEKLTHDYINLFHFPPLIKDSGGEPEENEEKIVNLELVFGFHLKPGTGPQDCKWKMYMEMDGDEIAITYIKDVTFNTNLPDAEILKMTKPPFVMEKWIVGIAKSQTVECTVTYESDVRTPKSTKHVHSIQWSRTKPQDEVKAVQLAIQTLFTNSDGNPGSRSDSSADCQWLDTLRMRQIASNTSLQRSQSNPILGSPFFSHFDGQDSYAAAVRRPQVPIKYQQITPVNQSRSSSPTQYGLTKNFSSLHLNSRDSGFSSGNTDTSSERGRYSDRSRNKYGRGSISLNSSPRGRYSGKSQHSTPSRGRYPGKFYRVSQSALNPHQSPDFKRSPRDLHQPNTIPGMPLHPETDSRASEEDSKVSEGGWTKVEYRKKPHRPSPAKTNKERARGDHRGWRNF
Description: as §1

[10] = target: T4, SRC (Homo sapiens, UniProt P12931); test: In vitro selectivity assay; assay type: biochemical; conditions: selectivity panel
T4 construct: ICE Bioscience Inc. (contract assay provider)
Description: as §1

[11] = target: YES1 (Homo sapiens, UniProt P07947); test: In vitro selectivity assay; assay type: biochemical; conditions: selectivity panel
Description: as §1

[12] = target: IGF1R (Homo sapiens, UniProt P08069); test: In vitro selectivity assay; assay type: biochemical; conditions: selectivity panel
Description: as §1

[13] = target: T5, EPHA4 (Homo sapiens, UniProt P54764); test: In vitro selectivity assay; assay type: biochemical; conditions: selectivity panel
T5 construct: ICE Bioscience Inc. (assay service)
Description: as §1

[14] = target: T6, HDAC6 (Homo sapiens, UniProt Q9UBN7); test: In vitro selectivity assay; assay type: biochemical; conditions: selectivity panel
T6 construct: ICE Bioscience Inc. (Beijing, China), the contract lab that ran the assay
T6 sequence (Q9UBN7 whole entry): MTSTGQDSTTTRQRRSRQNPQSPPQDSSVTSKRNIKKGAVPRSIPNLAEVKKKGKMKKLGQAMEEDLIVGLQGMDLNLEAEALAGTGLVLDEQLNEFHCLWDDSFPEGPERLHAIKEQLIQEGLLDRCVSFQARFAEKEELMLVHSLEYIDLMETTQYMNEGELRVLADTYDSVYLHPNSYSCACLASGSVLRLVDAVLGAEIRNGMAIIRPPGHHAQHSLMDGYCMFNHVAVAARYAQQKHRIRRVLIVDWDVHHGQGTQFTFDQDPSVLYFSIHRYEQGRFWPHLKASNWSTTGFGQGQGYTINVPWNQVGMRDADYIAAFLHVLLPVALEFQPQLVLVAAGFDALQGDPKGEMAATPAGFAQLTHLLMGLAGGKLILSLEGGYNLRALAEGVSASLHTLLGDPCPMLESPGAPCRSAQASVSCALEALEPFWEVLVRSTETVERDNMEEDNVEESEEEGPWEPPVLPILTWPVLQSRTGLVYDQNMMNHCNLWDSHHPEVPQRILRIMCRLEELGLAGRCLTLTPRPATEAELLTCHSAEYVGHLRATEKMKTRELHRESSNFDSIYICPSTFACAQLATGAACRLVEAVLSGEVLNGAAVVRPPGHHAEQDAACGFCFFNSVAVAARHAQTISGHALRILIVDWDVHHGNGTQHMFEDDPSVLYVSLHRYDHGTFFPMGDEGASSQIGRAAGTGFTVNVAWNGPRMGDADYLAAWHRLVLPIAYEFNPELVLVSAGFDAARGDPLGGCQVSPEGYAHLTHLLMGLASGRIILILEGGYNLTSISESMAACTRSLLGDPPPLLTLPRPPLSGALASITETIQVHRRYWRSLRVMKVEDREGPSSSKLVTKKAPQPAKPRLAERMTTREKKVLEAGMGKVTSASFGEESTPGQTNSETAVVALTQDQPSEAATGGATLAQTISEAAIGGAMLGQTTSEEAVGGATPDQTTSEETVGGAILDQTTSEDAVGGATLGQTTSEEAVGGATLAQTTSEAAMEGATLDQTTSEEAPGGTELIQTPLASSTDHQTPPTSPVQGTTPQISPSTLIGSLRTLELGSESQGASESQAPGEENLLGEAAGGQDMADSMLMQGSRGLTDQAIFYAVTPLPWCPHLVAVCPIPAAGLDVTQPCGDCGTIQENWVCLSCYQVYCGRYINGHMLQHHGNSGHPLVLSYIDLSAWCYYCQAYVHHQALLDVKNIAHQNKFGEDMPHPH
Description: as §1

[15] = target: T7, PDGFRA (Homo sapiens, UniProt P16234); test: In vitro selectivity assay; assay type: biochemical; conditions: selectivity panel
T7 construct: ICE Bioscience Inc. (contract assay provider)
Description: as §1

[16] = target: INSRR (Homo sapiens, UniProt P14616); test: In vitro selectivity assay; assay type: biochemical; conditions: selectivity panel
Description: as §1

[17] = target: T8, MET (Homo sapiens, UniProt P08581); test: In vitro selectivity assay; assay type: biochemical; conditions: selectivity panel
T8 construct: ICE Bioscience Inc. (contract assay provider)
Description: as §1

[18] = target: T9, HDAC2 (Homo sapiens, UniProt Q92769); test: In vitro selectivity assay; assay type: biochemical; conditions: selectivity panel
T9 construct: ICE Bioscience Inc. (contract assay provider)
Description: as §1

[19] = target: T10, DDR1 (Homo sapiens, UniProt Q08345); test: In vitro selectivity assay; assay type: biochemical; conditions: selectivity panel
T10 construct: ICE Bioscience Inc. (assay service)
Description: as §1

[20] = target: T11, EPHB2 (Homo sapiens, UniProt P29323); test: In vitro selectivity assay; assay type: biochemical; conditions: selectivity panel
T11 construct: ICE Bioscience Inc. (assay service)
Description: as §1

[21] = target: T12, RET (Homo sapiens, UniProt P07949); test: In vitro selectivity assay; assay type: biochemical; conditions: selectivity panel
T12 construct: ICE Bioscience Inc. (contract assay provider)
Description: as §1

[22] = target: FGFR2 (Homo sapiens, UniProt P21802); test: In vitro selectivity assay; assay type: biochemical; conditions: selectivity panel
Description: as §1

[23] = target: T13, EPHA6 (Homo sapiens, UniProt Q9UF33); test: In vitro selectivity assay; assay type: biochemical; conditions: selectivity panel
T13 construct: ICE Bioscience Inc. (assay service)
Description: as §1

[24] = target: T14, BTK (Homo sapiens, UniProt Q06187); test: In vitro selectivity assay; assay type: biochemical; conditions: selectivity panel
T14 construct: ICE Bioscience Inc. (assay service)
T14 sequence (Q06187 whole entry): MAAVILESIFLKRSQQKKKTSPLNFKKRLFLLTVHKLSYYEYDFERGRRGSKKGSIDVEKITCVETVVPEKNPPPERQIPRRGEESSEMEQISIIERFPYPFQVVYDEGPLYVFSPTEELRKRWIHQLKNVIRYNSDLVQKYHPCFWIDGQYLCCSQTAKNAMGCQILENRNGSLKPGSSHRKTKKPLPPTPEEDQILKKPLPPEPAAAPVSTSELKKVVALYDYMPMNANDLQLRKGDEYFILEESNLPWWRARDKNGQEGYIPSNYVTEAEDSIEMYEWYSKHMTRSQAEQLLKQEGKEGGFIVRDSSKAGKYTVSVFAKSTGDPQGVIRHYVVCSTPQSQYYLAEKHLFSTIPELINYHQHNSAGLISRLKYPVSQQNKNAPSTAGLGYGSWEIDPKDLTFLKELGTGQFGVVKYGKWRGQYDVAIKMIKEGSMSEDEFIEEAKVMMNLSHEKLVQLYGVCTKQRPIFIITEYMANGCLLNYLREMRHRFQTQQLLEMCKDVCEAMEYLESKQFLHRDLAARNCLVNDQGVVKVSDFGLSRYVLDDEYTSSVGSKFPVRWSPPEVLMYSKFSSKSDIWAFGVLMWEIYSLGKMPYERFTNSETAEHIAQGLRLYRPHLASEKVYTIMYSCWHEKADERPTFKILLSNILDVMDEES
Description: as §1

[25] = target: T15, DDR2 (Homo sapiens, UniProt Q16832); test: In vitro selectivity assay; assay type: biochemical; conditions: selectivity panel
T15 construct: ICE Bioscience Inc. (assay service)
Description: as §1

[26] = target: INSR (Homo sapiens, UniProt P06213); test: In vitro selectivity assay; assay type: biochemical; conditions: selectivity panel
Description: as §1

[27] = target: T16, KDR (Homo sapiens, UniProt P35968); test: In vitro selectivity assay; assay type: biochemical; conditions: selectivity panel
T16 construct: ICE Bioscience Inc. (contract assay provider)
Description: as §1

[28] = target: T17, MUSK (Homo sapiens, UniProt O15146); test: In vitro selectivity assay; assay type: biochemical; conditions: selectivity panel
T17 construct: ICE Bioscience Inc. (contract assay provider)
Description: as §1

[29] = target: T18, PDGFRB (Homo sapiens, UniProt P09619); test: In vitro selectivity assay; assay type: biochemical; conditions: selectivity panel
T18 construct: ICE Bioscience Inc. (contract assay provider)
Description: as §1

[30] = target: T19, KIT (Homo sapiens, UniProt P10721); test: In vitro selectivity assay; assay type: biochemical; conditions: selectivity panel
T19 construct: ICE Bioscience Inc. (contract assay provider)
Description: as §1

[31] = target: T20, ABL2 (Homo sapiens, UniProt P42684); test: In vitro selectivity assay; assay type: biochemical; conditions: selectivity panel
T20 construct: ICE Bioscience Inc. (assay service)
Description: as §1

[32] = target: T21, HDAC7 (Homo sapiens, UniProt Q8WUI4); test: In vitro selectivity assay; assay type: biochemical; conditions: selectivity panel
T21 construct: ICE Bioscience Inc. (Beijing, China), the contract lab that ran the assay
Description: as §1

[33] = target: T22, PTK2 (Homo sapiens, UniProt Q05397); test: In vitro selectivity assay; assay type: biochemical; conditions: selectivity panel
T22 construct: ICE Bioscience Inc. (contract assay provider)
Description: as §1

[34] = target: T23, EPHA7 (Homo sapiens, UniProt Q15375); test: In vitro selectivity assay; assay type: biochemical; conditions: selectivity panel
T23 construct: ICE Bioscience Inc. (assay service)
Description: as §1

[35] = target: ROS1 (Homo sapiens, UniProt P08922); test: In vitro selectivity assay; assay type: biochemical; conditions: selectivity panel
Description: as §1

[36] = target: T24, LTK (Homo sapiens, UniProt P29376); test: In vitro selectivity assay; assay type: biochemical; conditions: selectivity panel
T24 construct: ICE Bioscience Inc. (contract assay provider)
Description: as §1

[37] = target: T25, PTK6 (Homo sapiens, UniProt Q13882); test: In vitro selectivity assay; assay type: biochemical; conditions: selectivity panel
T25 construct: ICE Bioscience Inc. (contract assay provider)
Description: as §1

[38] = target: T26, HDAC5 (Homo sapiens, UniProt Q9UQL6); test: In vitro selectivity assay; assay type: biochemical; conditions: selectivity panel
T26 construct: ICE Bioscience Inc. (contract assay provider)
Description: as §1

In the case of Cn1cc(-c2cc3cnc(Nc4ccc(-c5cncn5/C=C/C(=O)NO)cc4Cl)cc3n2C(=O)OC(C)(C)C)cn1 [MPH-5], the body weight change ([1]; HepG2 xenograft mice) was “did not induce any significant body weight change”, the “tumor growth (tumor volume)” value ([1]; HepG2 xenograft, vs vehicle) was “significantly and dose-dependently inhibited the tumor growth” and the IC50 [2] was over 10 µM. The IC50 [3] was over 10 µM, the IC50 [4] was over 10 µM and the IC50 [5] was over 10 µM. The IC50 [6] was over 10 µM, the IC50 [7] was over 10 µM and the IC50 [8] was over 10 µM. The IC50 [9] was over 10 µM, the IC50 [10] was over 10 µM and the IC50 [11] was over 10 µM. For the same compound, the IC50 [12] was over 10 µM, the IC50 [13] was over 10 µM and the IC50 [14] was over 10 µM. For the same compound, the IC50 [15] was over 10 µM, the IC50 [16] was over 10 µM and the IC50 [17] was over 10 µM. The IC50 [18] was over 10 µM, the IC50 [19] was over 10 µM and the IC50 [20] was over 10 µM. For the same compound, the IC50 [21] was over 10 µM, the IC50 [22] was over 10 µM and the IC50 [23] was over 10 µM. The IC50 [24] was over 10 µM, the IC50 [25] was over 10 µM and the IC50 [26] was over 10 µM. The IC50 [27] was over 10 µM, the IC50 [28] was over 10 µM and the IC50 [29] was over 10 µM. The IC50 [30] was over 10 µM, the IC50 [31] was over 10 µM and the IC50 [32] was over 10 µM. For the same compound, the IC50 [33] was over 10 µM, the IC50 [34] was over 10 µM and the IC50 [35] was over 10 µM. The IC50 [36] was over 10 µM, the IC50 [37] was over 10 µM and the IC50 [38] was over 10 µM.
